According to PubChem BioAssay AID180 (DTP/NCI, 2004):
Several values for one entry are separate records, joined by “and”; a condition that tells them apart may be missing. Identical values can stand only once.

Tested on: BDF1 mice, Adenocarcinoma 755 s.c., tumor weight T/C
Experiment: NCI In Vivo Anticancer Drug Screen. Data for tumor model Adenocarcinoma 755 (subcutaneous) in B6D2F1 (BDF1) mice
Conditions: endpoint: mean tumor weight, schedule: Q01DX011 (ip), higher = larger tumour
How it was run: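 Values express treated (T) relative to vehicle-dosed control (C) animals, based on survival or tumour size measured after compound treatment of mice bearing a transplanted tumour.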

[1] = dose: 3.0 mg/kg/injection, vehicle: saline
[2] = dose: 6.0 mg/kg/injection, vehicle: saline

## O=c1[nH]cc(F)c(=O)[nH]1
dose: 3.38 mg/kg/injection, vehicle: carboxymethylcellulose (CMC)
  T/C: 106 % of control
dose: 3.87 mg/kg/injection, vehicle: carboxymethylcellulose (CMC)
  T/C: 61 % of control
dose: 4.13 mg/kg/injection, vehicle: carboxymethylcellulose (CMC)
  T/C: 48 % of control and 71 % of control
dose: 6.25 mg/kg/injection, vehicle: methylcellulose (MC)
  T/C: 91 % of control
dose: 6.75 mg/kg/injection, vehicle: carboxymethylcellulose (CMC)
  T/C: 75 % of control
dose: 7.75 mg/kg/injection, vehicle: carboxymethylcellulose (CMC)
  T/C: 103 % of control and 85 % of control
dose: 8.27 mg/kg/injection, vehicle: carboxymethylcellulose (CMC)
  T/C: 151 % of control and 159 % of control
dose: 10.8 mg/kg/injection, vehicle: carboxymethylcellulose (CMC)
  T/C: 156 % of control
dose: 12.5 mg/kg/injection, vehicle: methylcellulose (MC)
  T/C: 44 % of control
dose: 13.24 mg/kg/injection, vehicle: carboxymethylcellulose (CMC)
  T/C: 76 % of control
dose: 16.55 mg/kg/injection, vehicle: carboxymethylcellulose (CMC)
  T/C: 100 % of control and 224 % of control and 75 % of control
dose: 18.0 mg/kg/injection, vehicle: carboxymethylcellulose (CMC)
  T/C: 108 % of control
dose: 20.0 mg/kg/injection, vehicle: saline
  T/C: 15 % of control
dose: 22.06 mg/kg/injection, vehicle: carboxymethylcellulose (CMC)
  T/C: 59 % of control
dose: 25.0 mg/kg/injection, vehicle: methylcellulose (MC)
  T/C: 13 % of control
dose: 25.0 mg/kg/injection, vehicle: saline
  T/C: 34 % of control
dose: 27.0 mg/kg/injection, vehicle: carboxymethylcellulose (CMC)
  T/C: 18 % of control and 27 % of control
dose: 30.0 mg/kg/injection, vehicle: saline
  T/C: 11 % of control
dose: 33.1 mg/kg/injection, vehicle: carboxymethylcellulose (CMC)
  T/C: 27 % of control

## O=S(=O)(OCCCl)OCCCl
dose: 12.5 mg/kg/injection, vehicle: olive oil, sesame oil, peanut oil
  T/C: 109 % of control
dose: 25.0 mg/kg/injection, vehicle: olive oil, sesame oil, peanut oil
  T/C: 86 % of control

## Nc1nc(Cl)cc(Nc2ccc(CCO)cc2)n1
dose: 15.0 mg/kg/injection, vehicle: methylcellulose (MC)
  T/C: 101 % of control
dose: 62.0 mg/kg/injection, vehicle: methylcellulose (MC)
  T/C: 77 % of control
dose: 125.0 mg/kg/injection, vehicle: methylcellulose (MC)
  T/C: 102 % of control

## CCSCCC(N)C(=O)O (stereo not drawn)
dose: 13.13 mg/kg/injection, vehicle: carboxymethylcellulose (CMC)
  T/C: 171 % of control
dose: 18.0 mg/kg/injection, vehicle: methylcellulose (MC)
  T/C: 86 % of control
dose: 20.5 mg/kg/injection, vehicle: carboxymethylcellulose (CMC)
  T/C: 99 % of control
dose: 26.25 mg/kg/injection, vehicle: carboxymethylcellulose (CMC)
  T/C: 118 % of control
dose: 37.5 mg/kg/injection, vehicle: methylcellulose (MC)
  T/C: 107 % of control
dose: 52.5 mg/kg/injection, vehicle: carboxymethylcellulose (CMC)
  T/C: 121 % of control
dose: 56.5 mg/kg/injection, vehicle: carboxymethylcellulose (CMC)
  T/C: 46 % of control
dose: 82.0 mg/kg/injection, vehicle: carboxymethylcellulose (CMC)
  T/C: 65 % of control
dose: 90.4 mg/kg/injection, vehicle: other
  T/C: 156 % of control
dose: 105.0 mg/kg/injection, vehicle: carboxymethylcellulose (CMC)
  T/C: 93 % of control
dose: 113.0 mg/kg/injection, vehicle: carboxymethylcellulose (CMC)
  T/C: 38 % of control
dose: 113.0 mg/kg/injection, vehicle: other
  T/C: 109 % of control
dose: 150.66 mg/kg/injection, vehicle: other
  T/C: 37 % of control
dose: 226.0 mg/kg/injection, vehicle: carboxymethylcellulose (CMC)
  T/C: 84 % of control
dose: 226.0 mg/kg/injection, vehicle: other
  T/C: 49 % of control

## CSc1ncnc2c1ncn2C1OC(CO)C(O)C1O (stereo not drawn)
dose: 1.9 mg/kg/injection, vehicle: saline
  T/C: 102 % of control and 87 % of control
[1]
  T/C: 90 % of control
[2]
  T/C: 112 % of control
dose: 7.5 mg/kg/injection, vehicle: saline
  T/C: 100 % of control and 120 % of control
dose: 12.5 mg/kg/injection, vehicle: saline
  T/C: 93 % of control

## NC(N)=NC(CC(=O)O)c1ccccc1 (stereo not drawn)
dose: 15.0 mg/kg/injection, vehicle: saline
  T/C: 87 % of control
dose: 31.0 mg/kg/injection, vehicle: saline
  T/C: 99 % of control
dose: 62.0 mg/kg/injection, vehicle: saline
  T/C: 87 % of control
dose: 125.0 mg/kg/injection, vehicle: saline
  T/C: 107 % of control
dose: 250.0 mg/kg/injection, vehicle: saline
  T/C: 91 % of control

## CN(Cc1cnc2nc(NCNC(=O)C3=C(O)[C@@]4(O)C(=O)C5=C(O)c6c(O)cccc6[C@@](C)(O)[C@H]5C[C@H]4[C@H](N(C)C)C3=O)nc(N)c2n1)c1ccc(C(=O)NC(CCC(=O)O)C(=O)O)cc1 (stereo partly drawn)
dose: 1.5 mg/kg/injection, vehicle: saline
  T/C: 109 % of control
[1]
  T/C: 103 % of control
[2]
  T/C: 69 % of control

## CC(=O)OCC1OC(n2cnc3c(=O)[nH]cnc32)C(OC(C)=O)C1OC(C)=O (stereo not drawn)
dose: 30.0 mg/kg/injection, vehicle: carboxymethylcellulose (CMC)
  T/C: 55 % of control
dose: 60.0 mg/kg/injection, vehicle: carboxymethylcellulose (CMC)
  T/C: 65 % of control
dose: 120.0 mg/kg/injection, vehicle: carboxymethylcellulose (CMC)
  T/C: 80 % of control
dose: 240.0 mg/kg/injection, vehicle: carboxymethylcellulose (CMC)
  T/C: 67 % of control
dose: 400.0 mg/kg/injection, vehicle: carboxymethylcellulose (CMC)
  T/C: 110 % of control
dose: 600.0 mg/kg/injection, vehicle: carboxymethylcellulose (CMC)
  T/C: 117 % of control
